From article PMC6358775, “Elucidation of Vasodilation Response and Structure Activity Relationships of N^2,N^4-Disubstituted Quinazoline 2,4-Diamines in a Rat Pulmonary Artery Model” (Molecules, 2019)
≈ marks a conversion by molar mass, not a printed value. Where a name gives a salt, the structure may show the parent alone. Read-outs that look alike come from different tables or passages of the source.

How the values were obtained:
[1] = tested on: Aldehyde dehydrogenase 1A1; parameters: method as in earlier work; conditions: ChEMBL substructure search; cited from earlier work
α1 adrenergic receptor = α1 adrenergic receptor antagonist; ChEMBL substructure search; cited from earlier work
DHFR = conditions: ChEMBL substructure search; cited from earlier work
Glucose Transporter = tested on: Glucose Transporter; parameters: method as in earlier work; conditions: ChEMBL substructure search; cited from earlier work
[2] = tested on: PE-induced contraction of endothelium-denuded pulmonary arterial rings; assay: Inhibition of phenylephrine (PE)-induced contraction in endothelium-denuded arterial rings; parameters: species or system rat; conditions: Rattus norvegicus; 10 µM compound, 15 min pre-incubation, PE 0.0001–100 µM, E− rings; n = 3–5; read-out: % PE-Contraction Inhibition (SEM)
Experimental: These experiments were undertaken to assess the pharmacological activity of quinazoline analogues against the structurally related α1 receptor blocker (prazosin). In contrast to previous vasorelaxant experiments, this protocol was developed to determine the inhibitory effect of pre-incubated (15 min) inhibitors (10 µM) on the concentration-dependent vasoconstriction induced by cumulative addition of PE (0.0001–100 µM) in endothelium-denuded pulmonary arterial rings. Figure 5 illustrates the real time contractile response shown by the pulmonary arterial ring upon cumulative addition of PE, which evoked a concentration-dependent vasoconstriction, increasing the vessel’s tension.
After anesthesia with thiopental sodium (100 mg/kg, i.p.) (Anesthal®, Jagsonpsal Pharmaceutical Ltd., Haryana, India), rats were euthanized by exsanguination. Lungs were carefully excised, cleaned by the removal of connective tissue, and placed in cold physiological Krebs’ solution composed of (mM): NaCl 122; KCl 5; N-[2-hydroxyethyl] piperazine-N′-[2-ethane-sulfonic acid] (HEPES) 10; KH2PO4 0.5; NaH2PO4 0.5; MgCl2 1; CaCl2 1.8; and glucose 11 adjusted to pH 7.3 using 1 M NaOH. The pulmonary artery was isolated from the lungs and cut into rings approximately 2 mm in length before mounting in the organ bath chambers. Endothelial cells were mechanically removed in some experiments by gentle rubbing of the inner surface with forceps. Pulmonary arterial rings were mounted on intraluminal wires via stainless steel hooks maintaining the resting tension at 1 g and rings were equilibrated for 30 min before obtaining a stable contraction with 10^−5 M phenylephrine (PE). The rings were immersed in 10 mL baths containing physiological Krebs’ solution at 37 °C, which was continuously bubbled with air. Force transducers were connected with intraluminal wires to measure isometric tension via a Mac Lab A/D converter (Chart V5, A.D. Instruments, Castle Hill, NSW, Australia). The functional integrity of the endothelium in the vessels was confirmed by vasorelaxation of ≥70% with sequential addition of 10^−5 M acetylcholine (ACh) to pre-contracted vessels with 10^−5 M PE. Relaxations ≤30% to 10^−5 M ACh in vessels rubbed mechanically were considered successfully endothelium denuded.
The protocol included the assessment of the inhibitory vasoconstriction effect of quinazoline test compounds on endothelium-denuded arterial rings. Briefly, the arterial rings were treated with the α1-receptor blocker (prazosin) or test compound at a concentration of 10 µM for 15 min before construction of the second concentration response curve with cumulative addition of PE (0.0001–100 µM). The same conditions were used to test the effects of the solvent (DMSO 0.2%). The results were obtained in percentages by comparison of the maximum contraction without treatment with the contraction in the presence of the test compound [24, 36, 37].

physchem = conditions: for solubility thermodynamic at 6 h: pH 7.4, aqueous buffer, thermodynamic from solid
Experimental: The solubility of the compounds under investigation here were assessed in phosphate buffer at pH 7.4 using the equilibrium shake-flask method.
An equilibrium shake-flask technique was used to determine the solubility of samples in PBS at pH 7.4. Approximately 1 mg of sample was placed in a 10 mL glass screw top vial and dissolved in 1 mL of 0.02 M PBS at pH 7.4. The solution was sonicated for 1 h, followed by shaking for 6 h (IKA HS 260). The saturated solution was then filtered using a nylon syringe filter. A standard solution of each sample was prepared by dissolving a weighed amount of the sample in 1 mL of DMSO. The concentration of sample dissolved in the PBS solution was determined by comparing the peak area of the PBS and DMSO standard using an Agilent 1100 series HPLC with a Sunshell C8 column (Chromanik Technologies Inc., Osaka, Japan). A 100 µL injection of the aqueous sample and 5 µL of DMSO solution (pre-diluted 100 fold using DMSO) were used.

PDE-5 = PDE-5 (Homo sapiens, UniProt O76074); conditions: cited from earlier work
[3] = tested on: endothelium-denuded rat pulmonary arterial rings; assay: Vasorelaxation of PE pre-contracted endothelium-denuded (E−) pulmonary arterial rings, organ bath
[4] = tested on: endothelium-intact rat pulmonary arterial rings; assay: Vasorelaxation of PE pre-contracted endothelium-intact (E+) pulmonary arterial rings, organ bath; conditions: Rattus norvegicus
A549 cells = assay: MTT cytotoxicity assay in A549 cells; assay type: cell-based; conditions: Homo sapiens
Experimental: A 3-[4,5-dimehyl-2-thiazolyl]-2,5-diphenyl-2H-tetrazoliumbromide (MTT) assay was utilized to assess the concentration-response curves for quinazoline analogues as previously reported. A549 cells (ATCC CCL-185, human alveolar basal epithelial cell line) were used to account for the general cytotoxicity of compounds. Cells were cultured in DMEM medium containing fetal bovine serum (FBS; 10%), penicillin (10 U/mL), and streptomycin (100 U/mL). The temperature was maintained at 37 °C with 5% CO2. Cells were seeded for 16–18 h in DMEM and incubated for 72 h with the test compounds. After incubation, MTT (5 mg/mL in normal saline) was added with DMEM and incubated for 3 h. Careful decantation of the medium and addition of DMSO (50 µL) was done. Absorbance values were recorded at 570 nm after 5 min mechanical shaking of the microplate (Sunrise microplate reader, Tecan).
The activity was presented as the inhibitory concentration required to produce a 50% response (IC50). Prism 6.0 GraphPad Software Inc., (San Diego, CA, USA) was utilized for data fitting. 0.5% DMSO was used as the negative control.

COc1cc2nc(N3CCN(C(=O)c4ccco4)CC3)nc(N)c2cc1OC [PRAZOSIN HYDROCHLORIDE]
Activity [1]: 25 µM

COc1cc2nc(N(C)CCCNC(=O)C3CCCO3)nc(N)c2cc1OC (stereo not drawn) [Alfuzosin]
Activity (α1 adrenergic receptor): 3 nM

COc1cc(NCc2ccc3nc(N)nc(N)c3c2C)cc(OC)c1OC [Trimetrexate]
Activity (DHFR): 3 nM

COc1cccc2c(NCc3ccccc3)nc(NCCCN3CCCCC3C)nc12 (stereo not drawn) [CHEMBL546792]
Activity (Glucose Transporter): 4.102 µM

COc1cc2nc(N(C)C3CCN(Cc4ccccc4)CC3)nc(N)c2cc1OC [CHEMBL527902]
Activity (Glucose Transporter): 4.087 µM

Cc1ccccc1Nc1nc(Nc2ccccc2)c2ccccc2n1.Cl [CHEMBL582356]
Activity (Glucose Transporter): 4.496 µM

CCOc1ccc2ccccc2c1-c1cc2nc(N)nc(N)c2cc1C [CHEMBL1818128]
Activity (DHFR): 4.5 nM

COc1cc2nc(N3CCN(C(=O)c4ccco4)CC3)nc(N)c2cc1OC [Prazosin (PZN), Prazosin HCl, reference compound]
inhibition at 10 µM [2]: 98% | Sol. pH7.4 mg/mL (physchem; 6 h, pH 7.4): 0.55 mg/mL | Sol. pH7.4 (µM) (physchem; 6 h, pH 7.4): 1.42 µM | solubility thermodynamic at 6 h (physchem): 550 µg/mL | Activity (α1 adrenergic receptor): 1 nM

Clc1cnc(Nc2ccccc2)nc1NCc1ccccc1 [Compound 14]
PDE-5 activity (in words) (PDE-5): borderline PDE-5 inactive | Log Sol (physchem; 6 h, pH 7.4): 0.51 | Sol. pH7.4 (µM) (physchem; 6 h, pH 7.4): 3.27 µM | solubility thermodynamic at 6 h (physchem): 1020 µg/mL (≈ 3.28 mM) | IC50 ([3]; Table S3, endothelium-denuded, read-out: E- Vaso. pIC50 (converted)): 10.7 µM | EC50 ([3]; endothelium-denuded (E−) rings pre-contracted with 10^-5 M PE, cumulative 0.0001–30 µM, mean (SEM), n = 6, read-out: Vaso E− EC50 µM (SEM)): 10.7 µM | Emax ([3]; maximal relaxation, endothelium-denuded rings, up to 30 µM, mean ± SEM): 54.7 ± 6.12% | Emax ([4]; maximal relaxation, endothelium-intact rings, up to 30 µM, mean ± SEM): 67.8 ± 5.34% | IC50 ([4]; Table S3, endothelium-intact, read-out: E+ Vaso. pIC50 (converted)): 4.47 µM | EC50 ([4]; endothelium-intact (E+) rings pre-contracted with 10^-5 M PE, cumulative 0.0001–30 µM, mean (SEM), n = 6, read-out: Vaso E+ EC50 µM (SEM)): 4.49 µM | IC50 (A549 cells; A549, MTT, 72 h incubation, read-out: A549 IC50, µM (S.D.)): > 100 µM | IC50 (A549 cells; Table S3, A549, read-out: Cytox. pIC50 (converted)): > 100 µM
